PubChem BioAssay AID493147 (Broad Institute, 2011)
Values joined by “and” are separate entries in the source; they are usually repeats but may differ in a detail not shown here. Identical values can stand only once. Inconclusive results are not listed. Active and inactive are the calls of the source. How the calls were made is not given here.

tested on: NIH-3T3 viability with fluconazole, Alamar Blue, 48 h; assay: PubChem AID 493147; conditions: not given

| SMILES | AC50 |
| --- | --- |
| Cc1ccc(N2CCN(C(=O)c3ccc(Cl)cc3)CC2)nc1 | > 26000 nM (inactive) |
| COC(=O)Cn1ncc2ccccc21 | < 100 nM |
| O=C(Cn1nc(-c2ccccc2)c2ccccc21)NCc1ccc(Cl)cc1 | 25900 nM |
| COC(=O)Cn1nc(-c2cccc(F)c2)c2ccccc21 | 12800 nM |
| Cc1cccc(N2CCN(C(=O)c3ccc(Cl)cc3)CC2)n1 | 120 nM |
| COc1cccnc1N1CCN(C(=O)c2ccc(Cl)cc2)CC1 | 124 nM |
| CC1CCN(C(=O)Cn2c3ccccc3c3nc4n(c(=O)c32)CCS4)CC1 | > 26000 nM (inactive) |
| COC(=O)Cn1nc(-c2ccc(OC)cc2)c2ccccc21 | 1020 nM |
| O=C(Cn1nc(-c2ccccc2)c2ccccc21)OC1CCC1 | 191 nM |
| COC(=O)Cn1nc(-c2ccccc2)c2ccc(OC)cc21 | < 100 nM |
| COc1ccc(C(=O)N2CCN(c3ccccn3)CC2)cc1 | 461 nM |
| COc1ccc(NC(=O)Cn2c3ccccc3c3nc4n(c(=O)c32)CCS4)cc1 | 14900 nM |
| COC(=O)Cn1nc(I)c2ccccc21 | 528 nM |
| O=C(c1ccc(Cl)cc1)N1CCN(c2nc3ccccc3o2)CC1 | 24200 nM |
| O=C(Cn1c2ccccc2c2nc3n(c(=O)c21)CCS3)N1CCCC1 | < 100 nM |
| COC(=O)Cn1nc(-c2ccc(C(F)(F)F)cc2)c2ccccc21 | < 100 nM |
| COC(=O)Cn1nc(-c2ccccc2OC)c2ccccc21 | 1040 nM |
| O=C(c1ccc(Cl)cc1)N1CCN(c2cccc(C(F)(F)F)n2)CC1 | 17600 nM |
| COC(=O)Cn1c2ccccc2c2nc3n(c(=O)c21)CCS3 | 2660 nM |

tested on: not listed separately; assay: PubChem AID 493147; conditions: NIH-3T3 viability with fluconazole, Alamar Blue, 48 h; at 2.6 µM (top of the series)

| SMILES | activity change, negative = toxicity |
| --- | --- |
| COc1ccc2c(c1)c1nc3n(c(=O)c1n2CC(=O)N1CCC(C)CC1)CCS3 | 41.3% (inactive) |

same assay, conditions: NIH-3T3 viability with fluconazole, Alamar Blue, 48 h; at 26 µM (top of the series)

| SMILES | activity change, negative = toxicity |
| --- | --- |
| COC(=O)Cn1nc(-c2ccc(C)cc2)c2ccccc21 | -25% (inactive) |
| O=C(Cn1c2ccc(F)cc2c2nc3n(c(=O)c21)CCS3)N1CCCCCC1 | 21.2% (inactive) |
| COc1ccc2c(c1)c1nc3n(c(=O)c1n2CC(=O)N1CCC(Cc2ccccc2)CC1)CCS3 | 8.36% (inactive) |
| O=c1c2[nH]c3ccc(F)cc3c2nc2n1CCS2 | 9.27% (inactive) |
| COC(=O)CCCn1nc(-c2ccccc2)c2ccccc21 | -45% (inactive) |
| COCCn1nc(-c2ccccc2)c2ccccc21 | -7.82% (inactive) |
| N#CCn1nc(-c2ccccc2)c2ccccc21 | 8% (inactive) |
| O=C(Cn1c2ccc(F)cc2c2nc3n(c(=O)c21)CCS3)N1CCCCC1 | -20.6% (inactive) |
| O=c1c2[nH]c3ccccc3c2nc2n1CCS2 | -31.6% (inactive) |
| COC(=O)Cn1nc(-c2ccccc2)c2ccc(C(F)(F)F)cc21 | -18.2% (inactive) and -8.9% (inactive) |
| O=C(Cn1c2ccccc2c2nc3n(c(=O)c21)CCS3)NCCc1ccc(Cl)cc1 | -12% (inactive) |
| Cc1nn(S(C)(=O)=O)c2ccccc12 | -19.3% (inactive) |
| N#Cc1ccc(C(=O)N2CCN(c3ccccn3)CC2)cc1 | 15.4% (inactive) |
| COC(=O)Cn1nc(-c2cccc(OC)c2)c2ccccc21 | -29.2% (inactive) |
| O=C(c1ccc(F)cc1)N1CCN(c2ccccn2)CC1 | -8.14% (inactive) |
| O=C(Cn1nc(C(=O)N2CCCCC2)c2ccccc21)N1CCOCC1 | -3.68% (inactive) |
| O=C(Cn1c2ccccc2c2nc3n(c(=O)c21)CCS3)N1CCCCC1 | -8.42% (inactive) |
| O=C(c1ccc(Cl)cc1)N1CCN(c2ccc(C(F)(F)F)cn2)CC1 | 0.409% (inactive) |
| CCCNC(=O)Cn1nc(-c2ccccc2)c2ccccc21 | 20.3% (inactive) |
| COC(=O)Cn1nc(-c2ccccc2)c2cc(C)ccc21 | 3.35% (inactive) |
| N#Cc1cccc(N2CCN(C(=O)c3ccc(Cl)cc3)CC2)n1 | -27.5% (inactive) |
| O=C(Cn1c2ccccc2c2nc3n(c(=O)c21)CCS3)N1CCOCC1 | -8.2% (inactive) |
| CCCCC(=O)N1CCN(c2ccccn2)CC1 | 5.32% (inactive) |
| COC(=O)Cn1nc(-c2ccc(Cl)cc2)c2ccccc21 | -6.09% (inactive) |
| CCN(CC)C(=O)Cn1c2ccc(F)cc2c2nc3n(c(=O)c21)CCS3 | -39.8% (inactive) |
| COC(=O)Cn1nc(-c2ccccc2)c2cc(Cl)ccc21 | -3.67% (inactive) |

| SMILES | activity change, negative = toxicity |
| --- | --- |
| COCCC(=O)N1CCN(c2ccccn2)CC1 | 2.45% (inactive) |
| COC(=O)C(C)(C)n1nc(-c2ccccc2)c2ccccc21 | -1.11% (inactive) |
| COC(=O)Cn1nc(-c2ccc(F)cc2)c2ccccc21 | -40.8% (inactive) |
| COC(=O)Cn1nc(-c2ccccc2C)c2ccccc21 | 24.8% (inactive) |
| Cc1ccnc(N2CCN(C(=O)c3ccc(Cl)cc3)CC2)c1 | -20% (inactive) |
| O=C(c1ccc(Cl)cc1)N1CCN(c2ncccc2C(F)(F)F)CC1 | -31.9% (inactive) |
| N#Cc1ccc(N2CCN(C(=O)c3ccc(Cl)cc3)CC2)nc1 | -32.5% (inactive) |
| O=C(O)c1nn(Cc2ccc(Cl)cc2)c2ccccc12 | -35.3% (inactive) |
| O=C(Cn1nc(-c2ccccc2)c2ccccc21)Oc1ccccc1 | 26.7% (inactive) |
| O=C1OCCC1n1nc(-c2ccccc2)c2ccccc21 (configuration not stated) | 4.08% (inactive) |
| O=C(C1CCCCC1)N1CCN(c2ccccn2)CC1 | -25.3% (inactive) |
| CC(C)OC(=O)Cn1nc(-c2ccccc2)c2ccccc21 | 11.4% (inactive) |
| O=C(c1cccc(Cl)c1)N1CCN(c2ccccn2)CC1 | -4.09% (inactive) |
| CC(C)(C)OC(=O)Cn1nc(-c2ccccc2)c2ccccc21 | 20.8% (inactive) |
| COC(=O)Cn1nc(-c2ccccc2)c2cc(OC)ccc21 | -0.175% (inactive) |
| O=C(Cn1c2ccccc2c2nc3n(c(=O)c21)CCS3)N1CCCC1 | -33.6% (inactive) and 2.45% (inactive) |
| CC(C)C(=O)N1CCN(c2ccccn2)CC1 | 10% (inactive) |
| c1ccc(-c2nn(Cc3ncco3)c3ccccc23)cc1 | -36.1% (inactive) |
| O=C(c1ccccc1Cl)N1CCN(c2ccccn2)CC1 | -3.33% (inactive) |
| COC(=O)Cn1nc(-c2ccccc2)c2ccc(C)cc21 | 16.9% (inactive) |
| O=C(O)Cn1nc(-c2ccccc2)c2ccccc21 | -23% (inactive) |
| CNC(=O)Cn1nc(-c2ccccc2)c2ccccc21 | 2.83% (inactive) |
| COC(=O)[C@@H](C)n1nc(-c2ccccc2)c2ccccc21 (racemic) | -17.9% (inactive) |
| COC(=O)Cn1nc(C)c2ccccc21 | -17.5% (inactive) |
| COC(=O)Cn1nc(-c2ccccc2)c2ccccc21 | -33.7% (inactive) |
| COC(=O)Cn1c(-c2ccccc2)nc2ccccc21 | 10.3% (inactive) |
